Results on 8 compounds are retold here after ChEMBL document CHEMBL1201862, “PubChem BioAssay data set” (2004).

Activity calls are given as the source filed them.

For test [1], the target named is T1, Corticotropin-releasing factor receptor 2/Corticotropin-releasing factor-binding protein (Homo sapiens, UniProt P24387+Q13324).
T1 sequence (Q13324 whole entry): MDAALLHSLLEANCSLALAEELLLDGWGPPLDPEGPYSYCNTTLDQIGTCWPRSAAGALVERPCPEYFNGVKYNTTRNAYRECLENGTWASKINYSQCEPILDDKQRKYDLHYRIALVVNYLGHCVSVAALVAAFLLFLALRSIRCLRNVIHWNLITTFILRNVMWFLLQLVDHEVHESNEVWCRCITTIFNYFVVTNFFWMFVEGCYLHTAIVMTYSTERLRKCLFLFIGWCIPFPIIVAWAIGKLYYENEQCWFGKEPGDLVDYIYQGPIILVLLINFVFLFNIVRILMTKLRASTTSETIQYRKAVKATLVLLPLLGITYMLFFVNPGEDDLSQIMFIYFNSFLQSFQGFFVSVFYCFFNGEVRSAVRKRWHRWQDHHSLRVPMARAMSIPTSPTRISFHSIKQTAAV
T1 sequence (P24387 whole entry): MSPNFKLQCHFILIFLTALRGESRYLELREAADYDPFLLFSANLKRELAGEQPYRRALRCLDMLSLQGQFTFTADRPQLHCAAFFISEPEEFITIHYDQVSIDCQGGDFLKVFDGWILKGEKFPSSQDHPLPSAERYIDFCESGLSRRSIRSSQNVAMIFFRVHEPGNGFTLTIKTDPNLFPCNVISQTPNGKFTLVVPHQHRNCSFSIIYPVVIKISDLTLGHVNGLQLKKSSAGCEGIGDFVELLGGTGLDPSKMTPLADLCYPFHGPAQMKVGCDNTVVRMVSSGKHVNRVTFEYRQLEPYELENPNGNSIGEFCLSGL
The test is described as follows: activators of CRF receptor 2 with binding protein – uHTS hits, confirmation (AID 602473). It counts as functional. The settings on record: read-out: EC50_Mean.

The target in test [2] is T1, Corticotropin-releasing factor receptor 2/Corticotropin-releasing factor-binding protein. In words: Dose Response confirmation of uHTS hits for small molecule antagonists of the CRF-binding protein and CRF-R2 receptor complex. It counts as functional. The settings on record: read-out: IC50_Mean.
A short description of test [3]: CRF-BP/CRF-R2 complex antagonists, dose response, cell-based, uHTS hits, 384-well (AID 651639). As to conditions: read-out: IC50_Mean. The format is functional, Homo sapiens.
Test [4] concerns the target T2, Probable nicotinate-nucleotide adenylyltransferase (Staphylococcus aureus (strain N315), UniProt P65502). The format is functional, Staphylococcus aureus subsp. aureus N315.
The target in test [5] is T2, Probable nicotinate-nucleotide adenylyltransferase. It counts as functional, Staphylococcus aureus subsp. aureus N315. As to conditions: read-out: IC50_Mean.
Test [6] can be described thus: cytotoxicity toward NIH3T3 fibroblasts, dose response, counter-screen, cell-based, ATP luminescence, mouse fibroblasts (AID 2010).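 Also: cells exposed to compound for about 90 hours before reading.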 It counts as functional. In general terms: The purpose of a counterscreen is to sort out artefacts and off-target activity.
Test [7] in a line: inhibitors of intracellular T. cruzi replication, confirmation, NIH3T3 host cells, beta-gal luminescence (AID 2044).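 Also: intracellular parasites grown in NIH/3T3 mouse fibroblasts as host cells; luminescent beta-galactosidase reporter signal from transgenic T. cruzi replicating inside host cells; inhibitors lower the luminescence signal.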 It counts as functional, cell-based.
Test [8] has as its target T3, Sentrin-specific protease 1 (Homo sapiens, UniProt Q9P0U3).
T3 sequence (Q9P0U3 whole entry): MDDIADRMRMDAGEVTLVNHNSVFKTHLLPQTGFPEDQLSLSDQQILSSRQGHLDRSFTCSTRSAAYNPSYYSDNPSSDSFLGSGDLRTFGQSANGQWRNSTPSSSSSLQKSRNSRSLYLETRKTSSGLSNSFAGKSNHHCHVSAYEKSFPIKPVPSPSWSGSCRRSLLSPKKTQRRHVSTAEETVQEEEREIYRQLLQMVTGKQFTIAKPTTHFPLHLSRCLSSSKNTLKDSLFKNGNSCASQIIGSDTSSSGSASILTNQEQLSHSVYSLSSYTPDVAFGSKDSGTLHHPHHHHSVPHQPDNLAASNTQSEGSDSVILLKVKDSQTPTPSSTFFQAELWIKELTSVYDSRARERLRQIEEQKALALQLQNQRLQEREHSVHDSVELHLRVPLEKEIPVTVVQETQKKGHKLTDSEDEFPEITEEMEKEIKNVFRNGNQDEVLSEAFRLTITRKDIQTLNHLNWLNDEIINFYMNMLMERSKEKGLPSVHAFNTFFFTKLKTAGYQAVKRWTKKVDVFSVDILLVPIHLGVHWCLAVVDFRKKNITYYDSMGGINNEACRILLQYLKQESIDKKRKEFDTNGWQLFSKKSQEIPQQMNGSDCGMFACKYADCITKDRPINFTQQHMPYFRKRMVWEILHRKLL
In words: Dose response confirmation of small molecule inhibitors of the catalytic domain of the SUMO protease, SENP1 in a FRET assay. The format is functional. As to conditions: read-out: IC50_Mean.

In test [9] the target is T3, Sentrin-specific protease 1. The test is described as follows: potency of human SENP1 inhibitors, dose response, biochemical, kinetic FRET (AID 651697). It counts as functional. As to conditions: read-out: IC50_Mean.
In the next test the target is T4, Caspase-6 (Homo sapiens, UniProt P55212).
T4 sequence (P55212 whole entry): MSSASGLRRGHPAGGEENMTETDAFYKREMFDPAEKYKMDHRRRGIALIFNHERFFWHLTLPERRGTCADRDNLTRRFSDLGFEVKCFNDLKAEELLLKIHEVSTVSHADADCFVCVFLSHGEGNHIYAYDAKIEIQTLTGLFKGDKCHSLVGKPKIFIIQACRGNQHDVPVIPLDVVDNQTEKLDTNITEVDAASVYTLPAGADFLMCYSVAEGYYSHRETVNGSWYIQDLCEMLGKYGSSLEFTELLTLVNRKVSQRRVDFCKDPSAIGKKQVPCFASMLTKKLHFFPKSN
In words: human caspase-6 inhibitors, dose response, biochemical, VEID-R110 fluorescence, cherry-pick (AID 720632).

In test [10] the target is T5, Sentrin-specific protease 8 (Homo sapiens, UniProt Q96LD8).
T5 sequence (Q96LD8 whole entry): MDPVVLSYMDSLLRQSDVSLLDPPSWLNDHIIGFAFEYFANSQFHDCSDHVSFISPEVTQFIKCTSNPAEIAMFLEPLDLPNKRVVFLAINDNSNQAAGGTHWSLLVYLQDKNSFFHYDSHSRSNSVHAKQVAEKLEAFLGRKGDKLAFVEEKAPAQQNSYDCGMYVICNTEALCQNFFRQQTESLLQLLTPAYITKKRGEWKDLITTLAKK
It counts as functional.

In test [11] the target is T6, Sentrin-specific protease 6 (Homo sapiens, UniProt Q9GZR1).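 Also: Luminescence-based dose-response confirmatory assay of SENP6 inhibition, following up an ultra-high-throughput screen.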
T6 sequence (Q9GZR1 whole entry): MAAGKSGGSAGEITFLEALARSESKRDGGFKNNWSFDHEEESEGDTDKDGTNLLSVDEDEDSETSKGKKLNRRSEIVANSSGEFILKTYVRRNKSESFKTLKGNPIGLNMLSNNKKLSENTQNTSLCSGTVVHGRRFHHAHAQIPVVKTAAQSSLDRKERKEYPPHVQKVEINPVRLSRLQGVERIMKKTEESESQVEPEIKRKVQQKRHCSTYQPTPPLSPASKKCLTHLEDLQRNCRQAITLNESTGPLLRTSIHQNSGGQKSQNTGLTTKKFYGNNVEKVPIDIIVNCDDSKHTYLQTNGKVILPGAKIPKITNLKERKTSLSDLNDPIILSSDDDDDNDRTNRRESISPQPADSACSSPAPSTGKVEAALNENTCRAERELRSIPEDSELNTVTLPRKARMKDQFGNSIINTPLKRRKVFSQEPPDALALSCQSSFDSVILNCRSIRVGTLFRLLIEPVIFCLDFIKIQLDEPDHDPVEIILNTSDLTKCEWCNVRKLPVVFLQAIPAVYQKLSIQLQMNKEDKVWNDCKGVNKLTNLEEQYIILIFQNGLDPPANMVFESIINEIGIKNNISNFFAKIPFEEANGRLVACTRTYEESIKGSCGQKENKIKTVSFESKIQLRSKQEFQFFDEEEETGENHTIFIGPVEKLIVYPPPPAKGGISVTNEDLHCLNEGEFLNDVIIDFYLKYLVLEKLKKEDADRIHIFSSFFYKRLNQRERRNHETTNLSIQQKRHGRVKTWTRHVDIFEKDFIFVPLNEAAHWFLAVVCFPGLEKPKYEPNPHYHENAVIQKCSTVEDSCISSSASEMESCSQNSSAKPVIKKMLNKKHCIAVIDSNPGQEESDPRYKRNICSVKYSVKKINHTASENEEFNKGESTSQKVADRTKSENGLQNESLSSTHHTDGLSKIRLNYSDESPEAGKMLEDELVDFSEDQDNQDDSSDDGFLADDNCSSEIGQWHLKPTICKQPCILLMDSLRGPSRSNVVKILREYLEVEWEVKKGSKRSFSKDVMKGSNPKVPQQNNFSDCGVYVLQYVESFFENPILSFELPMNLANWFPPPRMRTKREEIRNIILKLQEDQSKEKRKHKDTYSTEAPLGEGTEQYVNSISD
The format is functional.

For the next test, the target named is T7, Caspase-3 (Homo sapiens, UniProt P42574).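 Also: Dose-response selectivity test against caspase-3 for candidate inhibitors of sentrin-specific proteases (SENPs).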
T7 sequence (P42574 whole entry): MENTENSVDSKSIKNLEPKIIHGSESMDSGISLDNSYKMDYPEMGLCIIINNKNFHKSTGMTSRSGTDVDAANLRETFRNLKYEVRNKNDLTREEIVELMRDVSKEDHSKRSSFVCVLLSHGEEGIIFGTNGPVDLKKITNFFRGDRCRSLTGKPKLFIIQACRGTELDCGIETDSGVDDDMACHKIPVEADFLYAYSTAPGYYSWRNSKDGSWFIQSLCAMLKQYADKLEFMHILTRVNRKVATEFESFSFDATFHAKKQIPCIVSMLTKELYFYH
It counts as functional.

Test [12] concerns the target T5, Sentrin-specific protease 8. The format is functional. The source holds these as a separate data set.
Test [13] deals with T8, Sentrin-specific protease 7 (Homo sapiens, UniProt Q9BQF6).
T8 sequence (Q9BQF6 whole entry): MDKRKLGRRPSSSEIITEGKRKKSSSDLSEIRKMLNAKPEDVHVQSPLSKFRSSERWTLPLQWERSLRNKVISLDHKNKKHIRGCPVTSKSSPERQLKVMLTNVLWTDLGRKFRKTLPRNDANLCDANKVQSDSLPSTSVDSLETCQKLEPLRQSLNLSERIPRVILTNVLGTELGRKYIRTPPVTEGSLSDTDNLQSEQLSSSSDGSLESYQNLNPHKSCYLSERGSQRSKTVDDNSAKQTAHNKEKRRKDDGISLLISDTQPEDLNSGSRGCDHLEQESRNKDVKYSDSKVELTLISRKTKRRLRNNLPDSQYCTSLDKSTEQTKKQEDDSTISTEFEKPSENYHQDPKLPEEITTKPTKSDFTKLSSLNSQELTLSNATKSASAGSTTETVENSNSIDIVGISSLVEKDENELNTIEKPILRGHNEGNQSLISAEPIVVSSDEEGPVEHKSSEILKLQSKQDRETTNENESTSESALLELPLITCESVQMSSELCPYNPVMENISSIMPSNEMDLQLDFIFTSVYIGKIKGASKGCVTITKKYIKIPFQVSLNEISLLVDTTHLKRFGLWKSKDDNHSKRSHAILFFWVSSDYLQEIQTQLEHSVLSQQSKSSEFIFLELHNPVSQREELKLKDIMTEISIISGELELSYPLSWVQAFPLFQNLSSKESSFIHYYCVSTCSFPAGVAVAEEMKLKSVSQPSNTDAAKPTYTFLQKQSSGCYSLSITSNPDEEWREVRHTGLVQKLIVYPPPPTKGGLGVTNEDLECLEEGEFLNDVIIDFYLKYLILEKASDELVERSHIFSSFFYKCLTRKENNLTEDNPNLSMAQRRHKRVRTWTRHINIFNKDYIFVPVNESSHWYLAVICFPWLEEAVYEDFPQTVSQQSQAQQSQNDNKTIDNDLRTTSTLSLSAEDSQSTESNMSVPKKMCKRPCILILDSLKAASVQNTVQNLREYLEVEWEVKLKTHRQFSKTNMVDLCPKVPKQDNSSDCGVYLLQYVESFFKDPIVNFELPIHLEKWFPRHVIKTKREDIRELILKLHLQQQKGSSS
The format is functional.

For test [14], the target named is T5, Sentrin-specific protease 8. It counts as functional. This is another data set of the same source.
The target of the next test is Albumin (Bos taurus, UniProt P02769). The test is described as follows: Counterscreen for inhibitors of T-cell receptor (TCR)-CD3 interaction: Fluorescence-based biochemical high throughput dose response assay to identify inhibitors of T-cell receptor (TCR)-CD3 interaction using a TAMRA-labeled BSA probe. The format is functional.
Chain of Albumin (P02769 whole entry): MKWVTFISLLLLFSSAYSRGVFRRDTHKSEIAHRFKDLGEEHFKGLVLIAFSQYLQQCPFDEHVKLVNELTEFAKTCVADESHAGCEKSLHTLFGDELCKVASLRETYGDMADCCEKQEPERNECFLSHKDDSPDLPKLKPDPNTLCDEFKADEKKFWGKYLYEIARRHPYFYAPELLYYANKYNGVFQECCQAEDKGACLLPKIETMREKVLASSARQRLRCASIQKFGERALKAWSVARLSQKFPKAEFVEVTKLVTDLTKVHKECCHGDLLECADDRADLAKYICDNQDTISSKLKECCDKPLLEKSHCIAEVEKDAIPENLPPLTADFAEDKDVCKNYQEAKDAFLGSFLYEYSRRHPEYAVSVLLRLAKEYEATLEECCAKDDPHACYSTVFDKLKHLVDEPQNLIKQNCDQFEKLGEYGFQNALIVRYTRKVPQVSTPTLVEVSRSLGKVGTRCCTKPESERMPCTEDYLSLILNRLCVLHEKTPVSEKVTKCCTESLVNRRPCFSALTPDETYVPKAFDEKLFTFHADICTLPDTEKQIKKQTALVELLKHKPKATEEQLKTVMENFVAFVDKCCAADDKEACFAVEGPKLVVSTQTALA

T2 sequence (P65502 whole entry): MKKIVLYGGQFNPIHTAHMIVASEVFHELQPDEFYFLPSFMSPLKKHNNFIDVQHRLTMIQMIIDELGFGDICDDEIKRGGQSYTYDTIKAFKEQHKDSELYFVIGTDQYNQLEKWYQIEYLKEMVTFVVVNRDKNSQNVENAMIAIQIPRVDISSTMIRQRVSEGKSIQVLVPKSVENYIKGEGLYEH

`Cc1nn(Cc2ccc(Cl)cc2)c(C)c1NC(=O)c1ccc([N+](=O)[O-])cc1`: the EC50 in test [1] is > 53 µM (inactive). In addition, the values for the IC50 in test [2] and in test [3] were < 0.368 µM (active) and > 20 µM (inactive), respectively.
In the case of `O=C(Nc1ccc(S(=O)(=O)Nc2nccs2)cc1)c1cccc(N2C(=O)c3ccccc3C2=O)c1`, the IC50 was 9.8 µM (active) in test [4] and 38.2 µM (active) in test [5].
As for `Cc1c(C(=O)N2CC3(CC(c4cccc(NC(=O)CC(c5ccccc5)c5ccccc5)c4)=NO3)C[C@@H]2C(N)=O)cc([N+](=O)[O-])cc1[N+](=O)[O-]` (some centres undefined), the EC50 in test [6] is > 60 µM (not active); in test [7] it was 1.05 µM (active). Further, the IC50 in [4] was 16.8 µM (active); in test [5] it was 38.4 µM (active).
Regarding `COC(=O)C1=NN(c2ccccc2)C2(S1)SC(C(C)=O)=C(C)N2c1ccccc1` (centres undefined), the EC50 in test [1] is > 53 µM (inactive). Besides, the figures for the IC50 in test [2] and in test [3] were 25.7 µM (active) and 19 µM (active), respectively.
`COc1ccc(Nc2cc(C)nc3ncnn23)cc1Cl`: the values for the IC50 in [8] and in [9] were 19.6 µM (active) and 40.8 µM (inactive), respectively.
For `O=C(Nc1cc2c(cc1Cl)-c1ccc([N+](=O)[O-])cc1C2=NO)C(F)(F)F`, in that order: 2.89 µM (active) and 12.5 µM (active).
`Cc1ccccc1N1C(=O)Cc2ccccc2C1=O`: the AC50 on Caspase-6 was 27.4 µM (active). Moreover, the IC50 was > 100 µM (inactive) in test [10]; 8.06 µM (active) in [11]; 3.55 µM (active) on Caspase-3; 45.7 µM (active) in test [12]; 23.8 µM (active) in [13]; 3.22 µM (active) in test [14].
For the compound `Cc1ccccc1C(=O)NNC(=S)NC(=O)c1cccnc1`, the IC50 at Albumin is > 94.1 µM (inactive).

What is called AC50 is the concentration at which the activity in the assay is half-maximal.
